How the values were obtained:
Aromatase = biological target: T1, Aromatase (Homo sapiens, UniProt P11511); assay: Inhibition of CYP19
T1 sequence (P11511 whole entry): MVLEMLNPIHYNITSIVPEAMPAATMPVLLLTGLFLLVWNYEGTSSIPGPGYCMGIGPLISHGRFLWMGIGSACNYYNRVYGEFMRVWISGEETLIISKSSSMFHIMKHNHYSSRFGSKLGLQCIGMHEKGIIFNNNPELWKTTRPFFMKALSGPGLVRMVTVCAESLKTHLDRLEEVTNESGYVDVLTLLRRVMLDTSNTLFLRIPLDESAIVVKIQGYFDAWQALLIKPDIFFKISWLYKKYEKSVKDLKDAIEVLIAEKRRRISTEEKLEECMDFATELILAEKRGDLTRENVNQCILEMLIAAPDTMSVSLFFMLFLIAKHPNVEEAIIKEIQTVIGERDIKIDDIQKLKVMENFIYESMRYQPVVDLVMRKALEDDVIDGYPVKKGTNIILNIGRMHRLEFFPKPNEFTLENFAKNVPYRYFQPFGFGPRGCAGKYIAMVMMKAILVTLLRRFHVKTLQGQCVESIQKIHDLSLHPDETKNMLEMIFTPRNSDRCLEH

[1] = Cytotoxicity against human HuCCA1 cells by MTT assay; format: functional, cell-based; conditions: HuCC-A1
[2] = test system: Radical scavenging activity; assay: Antioxidant activity assessed as DPPH radical scavenging activity; format: functional
HL-60 = assay: Antioxidant activity in human HL60 cells assessed as inhibition of TPA-induced superoxide anion radical production; format: functional, cell-based
MOLT-3 = assay: Cytotoxicity against human MOLT3 cells by XTT assay; format: functional, cell-based
[3] = Antioxidant activity assessed as inhibition of xanthine-xanthine oxidase generated superoxide anion radical production; format: functional
A549 = assay: Cytotoxicity against human A549 cells by MTT assay; format: functional, cell-based
[4] = biological target: Xanthine dehydrogenase/oxidase (Homo sapiens, UniProt P47989); assay: Inhibition of Xanthine oxidase
Sequence of Xanthine dehydrogenase/oxidase (P47989 whole entry): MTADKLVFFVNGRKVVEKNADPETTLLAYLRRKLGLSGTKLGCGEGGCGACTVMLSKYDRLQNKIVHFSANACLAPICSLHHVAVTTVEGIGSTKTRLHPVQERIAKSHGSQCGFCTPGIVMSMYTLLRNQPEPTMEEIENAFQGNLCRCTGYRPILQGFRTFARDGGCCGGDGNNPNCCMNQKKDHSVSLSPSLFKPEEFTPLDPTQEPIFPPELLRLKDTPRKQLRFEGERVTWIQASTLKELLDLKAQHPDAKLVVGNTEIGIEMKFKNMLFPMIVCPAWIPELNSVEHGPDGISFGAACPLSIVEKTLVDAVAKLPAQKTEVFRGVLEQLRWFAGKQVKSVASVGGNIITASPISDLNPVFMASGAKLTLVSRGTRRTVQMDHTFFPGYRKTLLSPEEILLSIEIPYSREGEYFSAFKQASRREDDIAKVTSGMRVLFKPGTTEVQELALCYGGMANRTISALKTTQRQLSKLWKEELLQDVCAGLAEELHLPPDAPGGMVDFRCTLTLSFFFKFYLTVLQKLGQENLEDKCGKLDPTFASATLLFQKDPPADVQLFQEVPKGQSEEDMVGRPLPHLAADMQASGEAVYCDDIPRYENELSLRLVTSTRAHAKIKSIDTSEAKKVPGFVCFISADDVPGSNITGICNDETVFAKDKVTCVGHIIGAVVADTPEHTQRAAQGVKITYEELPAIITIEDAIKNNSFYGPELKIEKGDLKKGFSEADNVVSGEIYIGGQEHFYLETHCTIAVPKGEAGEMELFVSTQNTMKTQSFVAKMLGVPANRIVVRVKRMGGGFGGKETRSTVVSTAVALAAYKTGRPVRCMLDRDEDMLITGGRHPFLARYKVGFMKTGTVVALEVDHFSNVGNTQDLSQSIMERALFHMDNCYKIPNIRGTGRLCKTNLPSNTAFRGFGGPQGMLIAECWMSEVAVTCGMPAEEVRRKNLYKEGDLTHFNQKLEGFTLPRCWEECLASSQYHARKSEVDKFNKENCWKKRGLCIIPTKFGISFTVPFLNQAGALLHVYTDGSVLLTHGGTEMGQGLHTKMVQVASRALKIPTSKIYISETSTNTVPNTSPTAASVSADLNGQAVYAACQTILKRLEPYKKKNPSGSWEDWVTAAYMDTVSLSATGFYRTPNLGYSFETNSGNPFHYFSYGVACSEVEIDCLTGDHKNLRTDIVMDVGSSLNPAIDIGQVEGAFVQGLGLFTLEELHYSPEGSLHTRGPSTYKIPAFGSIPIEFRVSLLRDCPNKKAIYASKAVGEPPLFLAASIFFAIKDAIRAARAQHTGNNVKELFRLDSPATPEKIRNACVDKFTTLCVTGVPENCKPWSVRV

HepG2 = assay: Cytotoxicity against human HepG2 cells by MTT assay; format: functional, cell-based

SMILES | IC50 (Aromatase) | IC50 [1] | IC50 [2] | IC50 (HL-60) | IC50 (MOLT-3) | IC50 [3] | IC50 (A549) | IC50 [4] | IC50 (HepG2)
CCC[C@H]1C[C@H]2OC(=O)c3c(cc(OC)c(O)c3O)[C@H]2O1 | > 16.9 µM | > 170 µM | 23.4 µM | > 136 µM | 124 µM | 52.6 µM | > 170 µM | > 679 µM | 23.7 µM
CCC[C@@H](O)C[C@H]1OC(=O)c2c(cc(OC)c(OC)c2O)[C@H]1O | > 15.3 µM | – | > 306 µM | > 122 µM | > 153 µM | 352 µM | – | > 612 µM | –
Oc1ncnc2[nH]ncc12 [ALLOPURINOL] | – | – | – | – | – | 3 µM | – | – | –
O=C1O[C@H]([C@@H](O)CO)C(O)=C1O [ASCORBIC ACID] | – | – | 21.2 µM | – | – | – | – | – | –
CCCC(=O)CC[C@H]1OC(=O)c2c1cc(OC)c(OC)c2O [COLLETOTRIALIDE] | > 16.2 µM | > 162 µM | > 324 µM | > 130 µM | 148 µM | – | > 162 µM | > 648 µM | > 162 µM
COc1cccc2c1C(=O)c1c(O)c3c(c(O)c1C2=O)C[C@@](O)(C(=O)CO)C[C@@H]3O[C@H]1C[C@H](N)[C@H](O)[C@H](C)O1 [DOXORUBICIN] | – | 0.67 µM | – | – | – | – | 0.34 µM | – | 0.29 µM
COc1cc([C@@H]2c3cc4c(cc3[C@@H](O[C@@H]3O[C@@H]5CO[C@@H](C)O[C@H]5[C@H](O)[C@H]3O)[C@H]3COC(=O)[C@H]23)OCO4)cc(OC)c1O [ETOPOSIDE] | – | – | – | – | 0.03 µM | – | – | – | 15.8 µM
CCC[C@H](O)C[C@@H]1Cc2cc(OC)c(OC)c(O)c2C(=O)O1 [FUSARENTIN 6,7-DIMETHYLETHER] | > 16.1 µM | > 161 µM | > 322 µM | > 128 µM | 115 µM | – | > 161 µM | > 644 µM | 121 µM
CCC[C@H](O)C[C@@H]1Cc2cc(OC)c(O)c(O)c2C(=O)O1 [FUSARENTIN 6-METHYL ETHER] | > 16.8 µM | – | 16.4 µM | > 135 µM | > 169 µM | 4.3 µM | – | > 675 µM | –
CCC[C@H]1C[C@H]2OC(=O)c3c(cc(OC)c(OC)c3O)[C@H]2O1 [MONOCERIN] | > 16.2 µM | > 162 µM | > 324 µM | > 130 µM | 153 µM | > 648 µM | > 162 µM | > 648 µM | > 162 µM
